Reference: PubChem BioAssay (NCI)
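All cell lines were grown in 96-well plates and treated with compound for 48 hours. GI50: concentration for 50% inhibition of growth. At the TGI there is no net growth.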

Columns and labels:
Test in all cases: DTP human tumour cell line panel, 48 h
HCC-2998 colon = tested on: HCC-2998 colon
SNB-75 CNS = tested on: SNB-75 CNS
SF-295 CNS = tested on: SF-295 CNS
NCI-H226 lung = tested on: NCI-H226 lung
U251 CNS = tested on: U251 CNS
SK-MEL-5 melanoma = tested on: SK-MEL-5 melanoma
HCT-15 colon = tested on: HCT-15 colon
SR leukemia = tested on: SR leukemia
SW-620 colon = tested on: SW-620 colon
SNB-19 CNS = tested on: SNB-19 CNS
A549 NSCLC = tested on: A549 NSCLC
KM12 colon = tested on: KM12 colon
TK-10 renal = tested on: TK-10 renal
NCI/ADR-RES ovarian = tested on: NCI/ADR-RES ovarian
HOP-62 NSCLC = tested on: HOP-62 NSCLC
ACHN renal = tested on: ACHN renal
EKVX NSCLC = tested on: EKVX NSCLC
CAKI-1 renal = tested on: CAKI-1 renal
UACC-257 melanoma = tested on: UACC-257 melanoma
HOP-92 NSCLC = tested on: HOP-92 NSCLC
CCRF-CEM leukemia = tested on: CCRF-CEM leukemia
HT29 colon = tested on: HT29 colon
SK-MEL-2 melanoma = tested on: SK-MEL-2 melanoma
COLO 205 colon = tested on: COLO 205 colon
HS 578T breast = tested on: HS 578T breast
PC-3 prostate = tested on: PC-3 prostate
RPMI-8226 leukemia = tested on: RPMI-8226 leukemia
BT-549 breast = tested on: BT-549 breast
786-0 renal = tested on: 786-0 renal

Compound: Clc1ccc(OCc2nnc3n2N=C(c2ccc(Cl)cc2Cl)CS3)cc1
- TGI (HCC-2998 colon): 35 µM
- GI50 (SNB-75 CNS): 16.3 µM
- TGI (SNB-75 CNS): 43.2 µM
- GI50 (SF-295 CNS): 13.7 µM
- TGI (SF-295 CNS): 44.2 µM
- GI50 (NCI-H226 lung): 17.3 µM
- TGI (NCI-H226 lung): 38.9 µM
- GI50 (U251 CNS): 19.5 µM
- TGI (U251 CNS): 41.8 µM
- GI50 (SK-MEL-5 melanoma): 16.4 µM
- TGI (SK-MEL-5 melanoma): 31.9 µM
- GI50 (HCT-15 colon): 13.9 µM
- TGI (HCT-15 colon): 37.1 µM
- GI50 (SR leukemia): 19.4 µM
- TGI (SR leukemia): 52.9 µM
- GI50 (SW-620 colon): 31.6 µM
- TGI (SW-620 colon): > 100 µM
- GI50 (SNB-19 CNS): 28.5 µM
- TGI (SNB-19 CNS): > 100 µM
- GI50 (A549 NSCLC): 32.6 µM
- TGI (A549 NSCLC): > 100 µM
- GI50 (KM12 colon): 20.9 µM
- TGI (KM12 colon): 54.4 µM
- GI50 (TK-10 renal): 15.9 µM
- TGI (TK-10 renal): > 100 µM
- GI50 (NCI/ADR-RES ovarian): 16.2 µM
- TGI (NCI/ADR-RES ovarian): 37.9 µM
- GI50 (HOP-62 NSCLC): 19.6 µM
- TGI (HOP-62 NSCLC): 41.3 µM
- GI50 (ACHN renal): 20.4 µM
- TGI (ACHN renal): 49.3 µM
- GI50 (EKVX NSCLC): 20.5 µM
- TGI (EKVX NSCLC): 52.9 µM
- GI50 (CAKI-1 renal): 25.9 µM
- TGI (CAKI-1 renal): 79.7 µM
- GI50 (UACC-257 melanoma): 25 µM
- TGI (UACC-257 melanoma): 50 µM
- GI50 (HOP-92 NSCLC): 14.3 µM
- TGI (HOP-92 NSCLC): 41.2 µM
- GI50 (CCRF-CEM leukemia): 21.1 µM
- TGI (CCRF-CEM leukemia): 68.1 µM
- GI50 (HT29 colon): 16 µM
- TGI (HT29 colon): 51.8 µM
- GI50 (SK-MEL-2 melanoma): 22.1 µM
- TGI (SK-MEL-2 melanoma): 45.8 µM
- GI50 (COLO 205 colon): 26.3 µM
- TGI (COLO 205 colon): 86.7 µM
- GI50 (HS 578T breast): 29.1 µM
- TGI (HS 578T breast): 71 µM
- GI50 (PC-3 prostate): 27.6 µM
- TGI (PC-3 prostate): > 100 µM
- GI50 (RPMI-8226 leukemia): 21.1 µM
- TGI (RPMI-8226 leukemia): 68.5 µM
- GI50 (BT-549 breast): 22.8 µM
- TGI (BT-549 breast): 46.2 µM
- GI50 (786-0 renal): 32.7 µM
- TGI (786-0 renal): > 100 µM
